In the experiment the target is T1, GLP-1R (Homo sapiens, UniProt P43220).
T1 construct: host or cells: CHO cells
Nature of the experiment: GLP-1R activation cAMP assay (Assay 1 or Assay 2). It counts as cell-based. As to conditions: cAMP increase in CHO cells stably expressing GLP-1R; compounds run on one of the two cAMP assays. In a few lines: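 CHO cells stably expressing human GLP-1R were incubated 1 h in HBSS/20 mM HEPES/0.1% BSA, then exposed to 10-point agonist dilutions for 30 min at 37 °C. cAMP increase was measured with an HTRF Gs dynamic kit; EC50 from sigmoidal fit of response versus log concentration.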

The source of these data is patent US20250312352A1, “GLP-1R MODULATING COMPOUNDS” (Gilead Sciences, Inc., priority 2021, published 2025).

T1 sequence (P43220 24-463): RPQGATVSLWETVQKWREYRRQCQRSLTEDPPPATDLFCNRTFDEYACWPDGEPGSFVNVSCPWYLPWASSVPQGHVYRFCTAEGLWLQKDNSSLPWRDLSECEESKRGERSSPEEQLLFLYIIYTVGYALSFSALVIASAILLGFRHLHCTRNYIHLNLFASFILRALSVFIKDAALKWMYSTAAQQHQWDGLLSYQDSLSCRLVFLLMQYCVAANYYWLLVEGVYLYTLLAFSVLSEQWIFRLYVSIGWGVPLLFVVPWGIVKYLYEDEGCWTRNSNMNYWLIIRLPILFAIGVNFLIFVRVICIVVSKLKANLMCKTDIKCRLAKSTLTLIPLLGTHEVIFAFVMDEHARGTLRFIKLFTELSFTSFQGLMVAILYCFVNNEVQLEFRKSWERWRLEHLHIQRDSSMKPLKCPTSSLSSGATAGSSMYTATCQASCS

By EC50 is commonly meant the concentration giving half of the maximal effect. A higher EC50 goes with a less potent agent. In turn, `Cn1cncc1C#Cc1cnc(COc2cccc(-c3cc(F)c(Cc4nc5ccc(C(=O)O)cc5n4C[C@@H]4CCO4)cc3F)n2)c(F)c1` [Example 293, (S)-2-(2,5-difluoro-4-(6-((3-fluoro-5-((1-methyl-1H-imidazol-5-yl)ethynyl)pyridin-2-yl)methoxy)pyridin-2-yl)benzyl)-1-(oxetan-2-ylmethyl)-1H-benzo[d]imidazole-6-carboxylic acid] showed an EC50 of 0.184 nM.

In turn, `COc1ncc(C#Cc2cnc(COc3cccc(-c4cc(F)c(Cc5nc6ccc(C(=O)O)cc6n5C[C@@H]5CCO5)cc4F)n3)c(F)c2)s1` [Example 294, (S)-2-(2,5-difluoro-4-(6-((3-fluoro-5-((2-methoxythiazol-5-yl)ethynyl)pyridin-2-yl)methoxy)pyridin-2-yl)benzyl)-1-(oxetan-2-ylmethyl)-1H-benzo[d]imidazole-6-carboxylic acid] displayed an EC50 of 0.182 nM.

Turning to `Cn1cc(C#Cc2ccc(COc3nc(-c4cc(F)c(Cc5nc6c(F)cc(C(=O)O)cc6n5C[C@@H]5CCO5)cc4F)ccc3F)cn2)cn1` [Example 295, (S)-2-(2,5-difluoro-4-(5-fluoro-6-((6-((1-methyl-1H-pyrazol-4-yl)ethynyl)pyridin-3-yl)methoxy)pyridin-2-yl)benzyl)-4-fluoro-1-(oxetan-2-ylmethyl)-1H-benzo[d]imidazole-6-carboxylic acid], the EC50 stood at 0.202 nM.

`Cn1cc(C#Cc2cnc(COc3nc(-c4cc(F)c(Cc5nc6c(F)cc(C(=O)O)cc6n5C[C@@H]5CCO5)cc4F)ccc3F)c(F)c2)cn1` [Example 296, (S)-2-(2,5-difluoro-4-(5-fluoro-6-((3-fluoro-5-((1-methyl-1H-pyrazol-4-yl)ethynyl)pyridin-2-yl)methoxy)pyridin-2-yl)benzyl)-4-fluoro-1-(oxetan-2-ylmethyl)-1H-benzo[d]imidazole-6-carboxylic acid] registered an EC50 of 0.036 nM.

`Cc1nnc(COc2nc(-c3cc(F)c(Cc4nc5c(F)cc(C(=O)O)cc5n4C[C@@H]4CCO4)cc3F)ccc2F)s1` [Example 297, (S)-2-(2,5-difluoro-4-(5-fluoro-6-((5-methyl-1,3,4-thiadiazol-2-yl)methoxy)pyridin-2-yl)benzyl)-4-fluoro-1-(oxetan-2-ylmethyl)-1H-benzo[d]imidazole-6-carboxylic acid]: it took 0.508 nM to reach a half-maximal effect (EC50).

`COCc1nnc(COc2cccc(-c3cc(F)c(Cc4nc5ccc(C(=O)O)cc5n4C[C@@H]4CCO4)cc3F)n2)s1` [Example 298, (S)-2-(2,5-difluoro-4-(6-((5-(methoxymethyl)-1,3,4-thiadiazol-2-yl)methoxy)pyridin-2-yl)benzyl)-1-(oxetan-2-ylmethyl)-1H-benzo[d]imidazole-6-carboxylic acid] gave an EC50 of 0.466 nM.

`CCc1nnc(COc2cccc(-c3cc(F)c(Cc4nc5ccc(C(=O)O)cc5n4C[C@@H]4CCO4)cc3F)n2)s1` [Example 299, (S)-2-(4-(6-((5-ethyl-1,3,4-thiadiazol-2-yl)methoxy)pyridin-2-yl)-2,5-difluorobenzyl)-1-(oxetan-2-ylmethyl)-1H-benzo[d]imidazole-6-carboxylic acid] yielded an EC50 of 2.63 nM.

`Cn1cc(C#Cc2cc(Cl)c(COc3cccc(-c4cc(F)c(Cc5nc6ccc(C(=O)O)cc6n5C[C@@H]5CCO5)cc4F)n3)cn2)cn1` [Example 300, (S)-2-(4-(6-((4-chloro-6-((1-methyl-1H-pyrazol-4-yl)ethynyl)pyridin-3-yl)methoxy)pyridin-2-yl)-2,5-difluorobenzyl)-1-(oxetan-2-ylmethyl)-1H-benzo[d]imidazole-6-carboxylic acid] showed an EC50 of 0.823 nM.

On to `Cn1cc(C#Cc2ccc(COc3cccc(-c4cc(F)c(Cc5nc6ccc(C(=O)O)cc6n5C[C@@H]5CCO5)cc4F)n3)c(F)c2)nn1` [Example 301, (S)-2-(2,5-difluoro-4-(6-((2-fluoro-4-((1-methyl-1H-1,2,3-triazol-4-yl)ethynyl)benzyl)oxy)pyridin-2-yl)benzyl)-1-(oxetan-2-ylmethyl)-1H-benzo[d]imidazole-6-carboxylic acid], for which a half-maximal effect (EC50) was put at 0.341 nM.

Take `Cn1cc(C#Cc2cnc(COc3cccc(-c4cc(F)c(Cc5nc6ccc(C(=O)O)cc6n5C[C@@H]5CCO5)cc4F)n3)c(Cl)c2)cn1` [Example 302, (S)-2-(4-(6-((3-chloro-5-((1-methyl-1H-pyrazol-4-yl)ethynyl)pyridin-2-yl)methoxy)pyridin-2-yl)-2,5-difluorobenzyl)-1-(oxetan-2-ylmethyl)-1H-benzo[d]imidazole-6-carboxylic acid]: a half-maximal response (EC50) required 0.567 nM.

Molecule `O=C(O)c1ccc2nc(Cc3cc(F)c(-c4cccc(OCc5ncc(C#Cc6cncs6)cc5F)n4)cc3F)n(C[C@@H]3CCO3)c2c1` [Example 303, (S)-2-(2,5-difluoro-4-(6-((3-fluoro-5-(thiazol-5-ylethynyl)pyridin-2-yl)methoxy)pyridin-2-yl)benzyl)-1-(oxetan-2-ylmethyl)-1H-benzo[d]imidazole-6-carboxylic acid] displayed an EC50 of 0.252 nM.

On to `COc1cc(C#Cc2cnn(C)c2)ccc1COc1cccc(-c2cc(F)c(Cc3nc4ccc(C(=O)O)cc4n3C[C@@H]3CCO3)cc2F)n1` [Example 304, (S)-2-(2,5-difluoro-4-(6-((2-methoxy-4-((1-methyl-1H-pyrazol-4-yl)ethynyl)benzyl)oxy)pyridin-2-yl)benzyl)-1-(oxetan-2-ylmethyl)-1H-benzo[d]imidazole-6-carboxylic acid], for which the midpoint of the response, the EC50, lay at 0.524 nM. Compared with the last molecule, the EC50 is about 2.1-fold higher.

The molecule `Cc1ncc(C#Cc2ccc(COc3cccc(-c4cc(F)c(Cc5nc6ccc(C(=O)O)cc6n5C[C@@H]5CCO5)cc4F)n3)cc2)cn1` [Example 305, (S)-2-(2,5-difluoro-4-(6-((4-((2-methylpyrimidin-5-yl)ethynyl)benzyl)oxy)pyridin-2-yl)benzyl)-1-(oxetan-2-ylmethyl)-1H-benzo[d]imidazole-6-carboxylic acid] registered an EC50 of 0.305 nM.

With `Cn1cc(C#Cc2ccc(COc3cccc(-c4cc(F)c(Cc5nc6ccc(C(=O)O)cc6n5C[C@@H]5CCO5)cc4F)n3)cc2)cn1` [Example 306, (S)-2-(2,5-difluoro-4-(6-((4-((1-methyl-1H-pyrazol-4-yl)ethynyl)benzyl)oxy)pyridin-2-yl)benzyl)-1-(oxetan-2-ylmethyl)-1H-benzo[d]imidazole-6-carboxylic acid], a half-maximal response (EC50) required 0.621 nM. This EC50 is about 2-fold higher than that of the molecule before.

In turn, `O=C(O)c1ccc2nc(Cc3cc(F)c(-c4cccc(OCc5nnc(C6CC6)s5)n4)cc3F)n(C[C@@H]3CCO3)c2c1` [Example 307, (S)-2-(4-(6-((5-cyclopropyl-1,3,4-thiadiazol-2-yl)methoxy)pyridin-2-yl)-2,5-difluorobenzyl)-1-(oxetan-2-ylmethyl)-1H-benzo[d]imidazole-6-carboxylic acid] came in with an EC50 of 0.59 nM. The EC50 values of the last two molecules are within 1.5-fold of each other.

With `Cc1nnc(COc2cccc(-c3cc(F)c(Cc4nc5ccc(C(=O)O)cc5n4C[C@@H]4CCO4)cc3F)n2)s1` [Example 308, (S)-2-(2,5-difluoro-4-(6-((5-methyl-1,3,4-thiadiazol-2-yl)methoxy)pyridin-2-yl)benzyl)-1-(oxetan-2-ylmethyl)-1H-benzo[d]imidazole-6-carboxylic acid], the EC50 worked out at 0.683 nM.

In turn, `CC(F)(F)c1cnc(COc2nc(-c3cc(F)c(Cc4nc5c(F)cc(C(=O)O)cc5n4C[C@@H]4CCO4)cc3F)ccc2F)s1` [Example 309, (S)-2-(4-(6-((5-(1,1-difluoroethyl)thiazol-2-yl)methoxy)-5-fluoropyridin-2-yl)-2,5-difluorobenzyl)-4-fluoro-1-(oxetan-2-ylmethyl)-1H-benzo[d]imidazole-6-carboxylic acid] registered an EC50 of 0.084 nM. This EC50 lies about 8.1-fold lower than the previous one.

`O=C(O)c1cc(F)c2nc(Cc3cc(F)c(-c4ccc(F)c(OCc5ncc(Cl)s5)n4)cc3F)n(C[C@@H]3CCO3)c2c1` [Example 311, (S)-2-(4-(6-((5-chlorothiazol-2-yl)methoxy)-5-fluoropyridin-2-yl)-2,5-difluorobenzyl)-4-fluoro-1-(oxetan-2-ylmethyl)-1H-benzo[d]imidazole-6-carboxylic acid] returned an EC50 of 0.03 nM.

As for `CCOc1nnc(COc2cccc(-c3cc(F)c(Cc4nc5c(F)cc(C(=O)O)cc5n4C[C@@H]4CCO4)cc3F)n2)s1` [Example 312, (S)-2-(4-(6-((5-ethoxy-1,3,4-thiadiazol-2-yl)methoxy)pyridin-2-yl)-2,5-difluorobenzyl)-4-fluoro-1-(oxetan-2-ylmethyl)-1H-benzo[d]imidazole-6-carboxylic acid], the EC50 was 0.044 nM.

In turn, `O=C(O)c1cc(F)c2nc(Cc3cc(F)c(-c4ccc(F)c(OCc5ncc(C(F)(F)F)s5)n4)cc3F)n(C[C@@H]3CCO3)c2c1` [Example 313, (S)-2-(2,5-difluoro-4-(5-fluoro-6-((5-(trifluoromethyl)thiazol-2-yl)methoxy)pyridin-2-yl)benzyl)-4-fluoro-1-(oxetan-2-ylmethyl)-1H-benzo[d]imidazole-6-carboxylic acid] came in with an EC50 of 0.032 nM.

As to `O=C(O)c1cc(F)c2nc(Cc3cc(F)c(-c4cccc(OCc5ccc(Cl)s5)n4)cc3F)n(C[C@@H]3CCO3)c2c1` [Example 314, (S)-2-(4-(6-((5-chlorothiophen-2-yl)methoxy)pyridin-2-yl)-2,5-difluorobenzyl)-4-fluoro-1-(oxetan-2-ylmethyl)-1H-benzo[d]imidazole-6-carboxylic acid], the EC50 was 0.094 nM.

In turn, `COCCn1c(Cc2cc(F)c(-c3cccc(OCc4nnc(OC)s4)n3)cc2Cl)nc2c(F)cc(C(=O)O)cc21` [Example 315, 2-(2-chloro-5-fluoro-4-(6-((5-methoxy-1,3,4-thiadiazol-2-yl)methoxy)pyridin-2-yl)benzyl)-4-fluoro-1-(2-methoxyethyl)-1H-benzo[d]imidazole-6-carboxylic acid] had an EC50 of 0.764 nM.

On to `N#Cc1cccc(C#Cc2cnc(COc3cccc(-c4cc(F)c(Cc5nc6ccc(C(=O)O)cc6n5C[C@@H]5CCO5)cc4F)n3)s2)c1` [Example 316, (S)-2-(4-(6-((5-((3-cyanophenyl)ethynyl)thiazol-2-yl)methoxy)pyridin-2-yl)-2,5-difluorobenzyl)-1-(oxetan-2-ylmethyl)-1H-benzo[d]imidazole-6-carboxylic acid], for which the EC50 was 0.129 nM.
